Publication PMC7522027 (Disease Models & Mechanisms, 2020)
Several values for one entry are separate records, joined by “and”; a condition that tells them apart may be missing. Equal values may be shown once.

Experiments:
zebrafish embryos [1] = assay: zebrafish embryo assay (morphological developmental defects at 48 hpf); format: in vivo, zebrafish (Danio rerio); details: for developmental defects in zebrafish embryos: broad concentration range; for effect on zebrafish embryo development: 20 µM (maximum tested concentration)
Protocol: Zebrafish eggs obtained from family crosses of Tuebingen long fin zebrafish lines were used to assess the biological activity of all samples. The eggs were washed with fresh E3 medium and subsequently divided over 24-well plates, with ten embryos per well in 1000 µl E3 medium. Samples were added to the wells at various times as mentioned in the figures and legends. At 48 hpf, the zebrafish embryos were inspected for morphological developmental defects. Embryos displaying morphological defects were imaged using a Leica MZFLIII microscope equipped with a Leica DFC320 camera or Leica M165 FC microscope equipped with a Leica DMC5400 camera.

zebrafish embryos [2] = assay: in situ hybridization with krox20/myod probes in treated zebrafish embryos; format: in vivo, zebrafish (Danio rerio); details: 750 nM from 6 hpf, fixed at 12 hpf
Protocol: Embryos were treated from approximately 6 hpf until 12 hpf when they were fixed in 4% paraformaldehyde overnight. In situ hybridization was performed using krox20 and myod anti-sense RNA probes as described elsewhere ([Thisse and Thisse, 2008]).

caALK6 = assay: caALK6-induced SMAD1/5 phosphorylation in HEK 293T cells; format: cell-based, human; details: cercosporamide 1-10 µM, LDN193189 200 nM
Excerpt: (§1) HepG2 or HEK 293T cells were lysed in Laemmli sample buffer. Proteins were separated by sodium dodecyl sulfate polyacrylamide gel electrophoresis (SDS-PAGE) and transferred onto […] polyvinylidene difluoride (PVDF) membrane (IPVH00010, Merck Millipore). Membranes were blocked using 5% non-fat dry milk in Tris-buffered saline with 0.1% Tween 20 (655204, Merck Millipore) and probed with the respective primary and secondary antibodies. The signal was detected using Clarity™ Western ECL Substrate (1705060, Bio-Rad) and ChemiDoc Imaging System (17001402, Bio-Rad). The antibodies used for immunoblotting were raised against the following proteins: phospho-SMAD1/5/8 ([Persson et al., 1998]; 1:1000), SMAD1 (Cell Signaling Technology, #6944; 1:1000), GAPDH (Merck Millipore, #G8795; 1:5000) and hemagglutinin (HA; Roche, #12CA5; 1:1000).
(§2) For experiments with the caALK type I receptor constructs, HEK 293T cells were seeded in 24-well plates at ∼90% confluency and transfected with the DNA expression constructs in the presence of PEI. Thirty hours after transfection, the cells were added to serum-starved medium and treated with compounds for 16 h (overnight). Subsequently, the cells were washed with PBS and lysed in Laemmli sample buffer. […]

caALK3 = molecular target: T1, caALK3 (Homo sapiens, UniProt P36894, Q233D); assay: caALK3-induced SMAD1/5 phosphorylation in HEK 293T cells; format: cell-based; details: cercosporamide 1-10 µM, LDN193189 200 nM
T1 construct: expressed in transfected cells; host or cells: HEK 293T
Excerpt: as §1, §2

[3] = test system: BMP2-induced SMAD1/5-dependent BRE-luc transcriptional reporter; assay: BMP2-induced BRE-luc transcriptional reporter assay in HepG2 cells; format: cell-based, human; details: HepG2, BMP2 50 ng/ml; cercosporamide 100 nM to 10 µM, LDN-193189 200 nM
Protocol: For luciferase transcriptional reporter assays, HepG2 cells were seeded in 9-cm plates at ∼60% confluency and transfected with polyethyleneimine (PEI). Twenty-four hours later, the transfected cells were seeded in 24-well plates at ∼60% confluency. Another 24 h later, the cells were serum starved for 6 h. Subsequently the cells were treated with compound or DMSO for 30 min. Thereafter, the cells were stimulated with BMP2 in the presence of compounds (or DMSO) for 16 h (overnight). Subsequently, the cells were washed with PBS and lysed. Luciferase activity was measured using the luciferase reporter assay system from Promega (Leiden, The Netherlands) by a Perkin Elmer luminometer Victor^3 1420. Each DNA transfection mixture was equalized with empty vector when necessary and every experiment was performed in triplicate. β-galactosidase expression construct was co-transfected and β-galactosidase was measured to normalize for differences in transfection efficiency. The BRE-luc reporter construct has been reported previously ([Korchynskyi and ten Dijke, 2002]).

caALK2 = molecular target: T2, caALK2 (Homo sapiens, UniProt Q04771, Q207D); assay: caALK2-induced SMAD1/5 phosphorylation in HEK 293T cells; format: cell-based; details: cercosporamide 1-10 µM, LDN193189 200 nM
T2 construct: expressed in transfected cells; host or cells: HEK 293T
T2 sequence (Q04771 21-509 Q207D): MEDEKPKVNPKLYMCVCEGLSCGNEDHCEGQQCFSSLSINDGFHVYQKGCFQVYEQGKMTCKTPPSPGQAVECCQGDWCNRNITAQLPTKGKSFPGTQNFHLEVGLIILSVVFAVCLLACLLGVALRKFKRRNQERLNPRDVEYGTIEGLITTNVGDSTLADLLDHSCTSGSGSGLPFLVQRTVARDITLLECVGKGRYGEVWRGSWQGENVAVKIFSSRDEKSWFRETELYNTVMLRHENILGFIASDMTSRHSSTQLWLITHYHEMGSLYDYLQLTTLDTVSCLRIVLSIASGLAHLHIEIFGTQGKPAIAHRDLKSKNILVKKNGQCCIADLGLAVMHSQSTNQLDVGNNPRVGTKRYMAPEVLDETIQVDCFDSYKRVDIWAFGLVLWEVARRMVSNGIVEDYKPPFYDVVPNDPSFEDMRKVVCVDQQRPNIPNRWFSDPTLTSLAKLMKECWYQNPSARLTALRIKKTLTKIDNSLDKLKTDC
Excerpt: as §1, §2

caALK1 = molecular target: T3, caALK1 (Homo sapiens, UniProt P37023, Q201D); assay: caALK1-induced SMAD1/5 phosphorylation in HEK 293T cells; format: cell-based; details: cercosporamide 1-10 µM, LDN193189 200 nM
T3 construct: expressed in transfected cells; host or cells: HEK 293T
Excerpt: as §1, §2

[4] = test system: BMP2-induced SMAD1/5 phosphorylation; assay: BMP2-induced SMAD1/5 phosphorylation in HepG2 cells (immunoblot); format: cell-based, human; details: HepG2, BMP2 50 ng/ml, maximum tested concentration of 20 µM
Protocol: For BMP stimulation, the HepG2 cells (∼50% confluency) were starved on serum-free medium for 6 h. Subsequently, prior to the addition of BMP ligands, the cells were treated with compound for 30 min. Next, the cells were stimulated with BMP2 (50 ng/ml) or BMP6 (50 ng/ml) for 45 min. The cells were then washed with PBS and lysed in Laemmli sample buffer for western blot analysis.
as §1

T1 sequence (P36894 24-532 Q233D): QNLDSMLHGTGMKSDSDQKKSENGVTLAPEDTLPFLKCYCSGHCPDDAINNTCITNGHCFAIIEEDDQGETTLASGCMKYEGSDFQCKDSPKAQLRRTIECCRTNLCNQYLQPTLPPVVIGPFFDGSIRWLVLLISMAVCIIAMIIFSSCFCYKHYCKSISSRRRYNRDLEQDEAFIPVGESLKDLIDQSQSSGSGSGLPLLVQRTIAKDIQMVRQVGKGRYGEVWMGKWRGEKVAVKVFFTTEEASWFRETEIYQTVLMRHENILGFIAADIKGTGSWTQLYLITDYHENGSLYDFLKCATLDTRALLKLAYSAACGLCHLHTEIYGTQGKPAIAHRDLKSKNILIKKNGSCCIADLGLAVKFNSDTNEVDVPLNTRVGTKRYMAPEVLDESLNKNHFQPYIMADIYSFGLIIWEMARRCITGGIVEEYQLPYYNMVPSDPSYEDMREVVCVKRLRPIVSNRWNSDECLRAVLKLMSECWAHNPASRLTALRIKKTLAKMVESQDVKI
T3 sequence (P37023 22-503 Q201D): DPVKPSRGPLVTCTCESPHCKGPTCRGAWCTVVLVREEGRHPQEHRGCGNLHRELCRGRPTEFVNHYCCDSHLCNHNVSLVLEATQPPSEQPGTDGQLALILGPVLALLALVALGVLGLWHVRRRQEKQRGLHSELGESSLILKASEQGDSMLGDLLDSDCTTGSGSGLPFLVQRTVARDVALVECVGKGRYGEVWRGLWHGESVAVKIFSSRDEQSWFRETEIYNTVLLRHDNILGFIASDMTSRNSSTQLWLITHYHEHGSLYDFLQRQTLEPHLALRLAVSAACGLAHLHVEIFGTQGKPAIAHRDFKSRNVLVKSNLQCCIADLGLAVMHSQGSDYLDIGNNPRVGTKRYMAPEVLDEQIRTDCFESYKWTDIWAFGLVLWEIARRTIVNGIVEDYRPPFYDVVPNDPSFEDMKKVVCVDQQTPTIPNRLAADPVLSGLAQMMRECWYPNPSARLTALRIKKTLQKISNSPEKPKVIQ

With Cc1cccc(-c2nn(C(=S)Nc3ccccc3)cc2-c2ccnc3ccccc23)n1 [A83-01] the “developmental defects in zebrafish embryos” value (zebrafish embryos [1]) was “severely curved tail and fused eyes”.

Cc1cccc(-c2[nH]ncc2-c2ccc3ncccc3n2)n1 [ALK5 kinase inhibitor II] was tested, and the “developmental defects in zebrafish embryos” value (zebrafish embryos [1]) was “severely curved tail and fused eyes”.

In the case of CC(C)Oc1ccc(-c2cnc3c(-c4ccnc5ccccc45)cnn3c2)cc1 [DMH-1], the lethality (zebrafish embryos [1]; 250 nM, treatment from 2 hpf onwards) is reported as “lethal”, the “embryos in which treatment is lethal” value (zebrafish embryos [1]; 250 nM, treatment from 4 hpf) is reported as 50% and the phenotype (zebrafish embryos [1]; 750 nM) is reported as “loss of the ventral fin”. For the same compound, the “phenotype at 48 hpf” value (zebrafish embryos [1]; DMH-1 treatment at 8 hpf (250 nM, Fig. S3)) was “mild defects”, the krox20 expression pattern (zebrafish embryos [2]) was “induced lateral expression of krox20” and the “fraction of embryos showing the pattern” value (zebrafish embryos [2]; one fraction per depicted pattern) was 9/13 and 4/13.

For c1ccc2c(-c3cnn4cc(-c5ccc(N6CCNCC6)cc5)cnc34)ccnc2c1 [LDN-193189, reference compound], the “effect on caALK6-induced SMAD1/5 phosphorylation” value (caALK6) was “strongly reduced”, the “effect on caALK3-induced SMAD1/5 phosphorylation” value (caALK3) was “strongly reduced” and the “effect on BMP2-induced BRE-luc activity” value [3] was “potent antagonizing effect”. The “developmental defects, single treatment” value (zebrafish embryos [1]; 5 µM, from 7 hpf onwards) was “did not induce detectable developmental defects”, the “effect on caALK2-induced SMAD1/5 phosphorylation” value (caALK2) was “strongly reduced” and the “effect on caALK1-induced SMAD1/5 phosphorylation” value (caALK1) was “strongly reduced”.

With Cc1cc(Nc2cc(N)ncn2)c(=O)n2c1C(=O)NC21CCCCC1 [eFT508] the “effect on SMAD1/5 phosphorylation” value [4] was “no effect”, the “effect on SMAD1/5 phosphorylation” value ([4]; listed as eFT 508) was “did not affect” and the “effect on zebrafish embryo development” value (zebrafish embryos [1]) was “no effect”. For the same compound, the “effect on zebrafish embryo development” value (zebrafish embryos [1]; listed as eFT 508) was “did not induce developmental”.
